Earlier results in patent publication US20040241049A1, “Elastomeric tools for the fabrication of elastomeric devices and uses thereof” (priority 2003, published 2004).

test system: α1-acid glycoprotein, αAGP; conditions: displacement of quinaldine red from αAGP; stated as known

Q: Which “inhibition of QR/αAGP binding (binder / non-binder)” value (“inhibition … (binder / non-binder)” below) does the source give for `CN(C)CCCN1c2ccccc2Sc2ccc(Cl)cc21` [chloropromazine] here?
A: known inhibitors to QR/αAGP binding

Q: With `CC(C)Cc1ccc(C(C)C(=O)O)cc1` (stereo not drawn) [ibuprofen] as the compound, how does the “inhibition … (binder / non-binder)” value read?
A: non-binder

Q: With `O=C(O)c1cc(I)cc(I)c1I` [tri-idiobenzoic acid] as the compound, how does the “inhibition … (binder / non-binder)” value read?
A: known inhibitors to QR/αAGP binding
